Test: xn = mol fraction of the nth substance listed

O=[N+]([O-])c1ccccc1 + C1CCCCC1
viscosity [mPa·s]
Settings	298.15 K	303.15 K	308.15 K	313.15 K
101 kPa, x2 = 0.1079	–	1.461	–	–
101 kPa, x2 = 0.2065	–	1.325	–	–
101 kPa, x2 = 0.49	–	1.036	–	–
101 kPa, x2 = 0.5924	–	0.9727	–	–
101 kPa, x2 = 0.701	–	0.9147	–	–
101 kPa, x2 = 0.8319	–	0.844	–	–
101 kPa, x2 = 0.8998	–	0.8149	–	–
101.3 kPa, x1 = 0.099	0.9069	0.8365	0.7722	0.7123
101.3 kPa, x1 = 0.2037	0.9519	0.8775	0.8109	0.7485
101.3 kPa, x1 = 0.297	–	0.9369	0.8638	0.7984
101.3 kPa, x1 = 0.3968	1.089	1	0.925	0.8553
101.3 kPa, x1 = 0.4968	1.16	1.067	–	0.9115
101.3 kPa, x1 = 0.5973	1.247	1.153	1.065	0.9854
101.3 kPa, x1 = 0.6959	1.346	1.241	1.147	1.061
101.3 kPa, x1 = 0.8011	–	1.367	1.264	1.167
101.3 kPa, x1 = 0.893	1.603	1.481	1.358	1.254
101.3 kPa, x2 = 0.1908	–	–	1.385	–

CCCCCCCC + CCCO
Settings	viscosity [mPa·s]
293.15 K, 101.3 kPa, x2 = 0.2756	0.602
293.15 K, 101.3 kPa, x2 = 0.4165	0.699
293.15 K, 101.3 kPa, x2 = 0.5351	0.825
293.15 K, 101.3 kPa, x2 = 0.6355	0.967
293.15 K, 101.3 kPa, x2 = 0.6822	1.039
293.15 K, 101.3 kPa, x2 = 0.7221	1.128
293.15 K, 101.3 kPa, x2 = 0.7934	1.295
293.15 K, 101.3 kPa, x2 = 0.8726	1.545
293.15 K, 101.3 kPa, x2 = 0.9243	1.746
293.15 K, 101.3 kPa, x2 = 0.9752	2.003
298.15 K, 101.3 kPa, x2 = 0.114	0.511
298.15 K, 101.3 kPa, x2 = 0.2756	0.561
298.15 K, 101.3 kPa, x2 = 0.4165	0.645
298.15 K, 101.3 kPa, x2 = 0.5351	0.752
298.15 K, 101.3 kPa, x2 = 0.6356	0.875
298.15 K, 101.3 kPa, x2 = 0.6823	0.939
298.15 K, 101.3 kPa, x2 = 0.7221	1.016
298.15 K, 101.3 kPa, x2 = 0.7934	1.162
298.15 K, 101.3 kPa, x2 = 0.8726	1.403
298.15 K, 101.3 kPa, x2 = 0.9243	1.554
298.15 K, 101.3 kPa, x2 = 0.9752	1.79
298.15 K, 101.33 kPa, x2 = 0.1018	0.535
298.15 K, 101.33 kPa, x2 = 0.1778	0.558
298.15 K, 101.33 kPa, x2 = 0.3151	0.617
298.15 K, 101.33 kPa, x2 = 0.4271	0.696
298.15 K, 101.33 kPa, x2 = 0.5512	0.809
298.15 K, 101.33 kPa, x2 = 0.6801	0.987
298.15 K, 101.33 kPa, x2 = 0.7955	1.227
298.15 K, 101.33 kPa, x2 = 0.9677	1.824
303.15 K, 101.3 kPa, x2 = 0.114	0.482
303.15 K, 101.3 kPa, x2 = 0.2756	0.522
303.15 K, 101.3 kPa, x2 = 0.4165	0.592
303.15 K, 101.3 kPa, x2 = 0.5351	0.686
303.15 K, 101.3 kPa, x2 = 0.6355	0.795
303.15 K, 101.3 kPa, x2 = 0.6822	0.857
303.15 K, 101.3 kPa, x2 = 0.7221	0.917
303.15 K, 101.3 kPa, x2 = 0.7934	1.045
303.15 K, 101.3 kPa, x2 = 0.8726	1.227
303.15 K, 101.3 kPa, x2 = 0.9243	1.383
303.15 K, 101.3 kPa, x2 = 0.9752	1.579
308.15 K, 101.3 kPa, x2 = 0.0417	0.458
308.15 K, 101.3 kPa, x2 = 0.1389	0.466
308.15 K, 101.3 kPa, x2 = 0.2682	0.497
308.15 K, 101.3 kPa, x2 = 0.3477	0.528
308.15 K, 101.3 kPa, x2 = 0.4105	0.558
308.15 K, 101.3 kPa, x2 = 0.4648	0.591
308.15 K, 101.3 kPa, x2 = 0.525	0.636
308.15 K, 101.3 kPa, x2 = 0.5911	0.694
308.15 K, 101.3 kPa, x2 = 0.6512	0.757
308.15 K, 101.3 kPa, x2 = 0.7011	0.818
308.15 K, 101.3 kPa, x2 = 0.7397	0.873
308.15 K, 101.3 kPa, x2 = 0.7864	0.95
308.15 K, 101.3 kPa, x2 = 0.8382	1.05
308.15 K, 101.3 kPa, x2 = 0.8827	1.153
308.15 K, 101.3 kPa, x2 = 0.9289	1.279
